Experimental data taken from patent US4068074A, “Cephalosporin derivatives having at the 3-position of the cephem ring a heterocyclic thiomethyl group with a carboxy or sulfo group and at the 7-position of the cephem ring an α-heterocylic acylaminophenyl-acetamide group” (priority 1974, dated 1978).
Converted amounts (≈) assume the structure as drawn. Where two headings read alike, the source gives them in different places.

Columns and labels:
Format in all cases: cell-based
Proteus vulgaris OXK US = test: MIC against bacteria (Table I), strain (1); conditions: (1) Proteus vulgaris OXK US
From the text: (§1) Now, for illustrating the excellent pharmacological effects of the compounds of this invention, the values of MIC (γ/ml.) of the compounds against various bacteria are shown in Table 1, in which the compounds of this invention used are shown by example numbers.
(1) Proteus vulgaris OXK US

Proteus vulgaris 0X 19US = test: MIC against bacteria (Table I), strain (2)
From the text: as §1
(2) Proteus vulgaris 0X 19US

[1] = system: Proteus mirabilis IXM OM-19; test: MIC against bacteria (Table I), strain (3)
From the text: as §1
(3) Proteus mirabilis IXM OM-19

[2] = system: Pseudomonas aeruginosa ATCC 8689; test: MIC against bacteria (Table I), strain (4)
From the text: as §1
(4) Pseudomonas aeruginosa ATCC 8689

[3] = system: Pseudomonas aeruginosa 99 (Gentamycin resistant); test: MIC against bacteria (Table I), strain (5); conditions: (5) Pseudomonas aeruginosa 99 (Gentamycin resistant)
From the text: as §1
(5) Pseudomonas aeruginosa 99 (Gentamycin resistant)

[4] = system: Psuedomonas ovalis IMA 1002; test: MIC against bacteria (Table I), strain (6); conditions: (6) Psuedomonas ovalis IMA 1002
From the text: as §1
(6) Psuedomonas ovalis IMA 1002

[5] = system: Escherichia coli kauffmann 0-1; test: MIC against bacteria (Table I), strain (7)
From the text: as §1
(7) Escherichia coli kauffmann 0-1

[6] = system: Klebsiella pneumoniae ATCC 10031; test: MIC against bacteria (Table I), strain (8); conditions: (8) Klebsiella pneumoniae ATCC 10031
From the text: as §1
(8) Klebsiella pneumoniae ATCC 10031

Salmonella typhi H901 W = test: MIC against bacteria (Table I), strain (9)
From the text: as §1
(9) Salmonella typhi H901 W

Salmonella enteritidis = test: MIC against bacteria (Table I), strain (10); conditions: (10) Salmonella enteritidis
From the text: as §1
(10) Salmonella enteritidis

[7] = system: Shigella flexneri 2a 1675; test: MIC against bacteria (Table I), strain (11); conditions: 2A1675
From the text: as §1

Shigella sonnei II 37148 = test: MIC against bacteria (Table I), strain (12); conditions: II37148
From the text: as §1

[8] = system: Bacillus megatherium 10778; test: MIC against bacteria (Table I), strain (13)
From the text: as §1

[9] = system: Bacillus subtilis ATCC 6633; test: MIC against bacteria (Table I), strain (14)
From the text: as §1
(14) Bacillus subtilis ATCC 6633

[10] = system: Micrococcus flavus ATCC 10240; test: MIC against bacteria (Table I), strain (15)
From the text: as §1
(15) Micrococcus flavus ATCC 10240

[11] = system: Staphylococcus aureus 209P; test: MIC against bacteria (Table I), strain (16)
From the text: as §1
(16) Staphylococcus aureus 209P

[12] = system: Staphylococcus Shimanishi; test: MIC against bacteria (Table I), strain (17)
From the text: as §1
(17) Staphylococcus Shimanishi

Staphylococcus Onuma = test: MIC against bacteria (Table I), strain (18)
From the text: as §1
(18) Staphylococcus Onuma

[13] = IXMOM19, (3) Proteus mirabilis IXM OM-19, read-out: MIC
[14] = Salmonella enterica, read-out: MIC
[15] = (11) Shigella flexneri 2a 1675, read-out: MIC
[16] = (12) Shigella sonnei II 37148, read-out: MIC
[17] = (13) Bacillus megatherium 10778, read-out: MIC
[18] = ATCC6633, (14) Bacillus subtilis ATCC 6633, read-out: MIC
[19] = (16) Staphylococcus aureus 209P, read-out: MIC
[20] = (17) Staphylococcus Shimanishi, read-out: MIC
[21] = 0X19US, (2) Proteus vulgaris 0X 19US, read-out: MIC
[22] = ATCC8689, (4) Pseudomonas aeruginosa ATCC 8689, read-out: MIC
[23] = (18) Staphylococcus Onuma, read-out: MIC
[24] = ATCC10240, (15) Micrococcus flavus ATCC 10240, read-out: MIC

O=C(O)C1=C(CSc2nnc(C(=O)O)s2)CS[C@@H]2[C@H](NC(=O)[C@H](NC(=O)c3cnccc3O)c3ccccc3)C(=O)N12 [Example 11, 7-[D-α-(4-hydroxynicoytinoylamido)-α-phenylacetamido]-3-(5-carboxy-1,3,4-thiadiazol-2-yl)thiomethyl-Δ^3-cephem-4-carboxylic acid]
MIC (Proteus vulgaris OXK US; read-out: MIC): 0.39 mg/L (≈ 0.62 µM)
MIC (Proteus vulgaris 0X 19US; Proteus vulgaris, 0X19US): 6.25 mg/L (≈ 9.94 µM)
MIC [1, 13]: 0.56 mg/L (≈ 0.891 µM)
MIC ([2]; Pseudomonas aeruginosa, ATCC8689): 25 mg/L (≈ 39.8 µM)
MIC ([3]; read-out: MIC): 12.5 mg/L (≈ 19.9 µM)
MIC ([4]; read-out: MIC): 12.5 mg/L (≈ 19.9 µM)
MIC ([5]; Escherichia coli): 25 mg/L (≈ 39.8 µM)
MIC ([6]; ATCC10031, read-out: MIC): 3.13 mg/L (≈ 4.98 µM)
MIC (Salmonella typhi H901 W; Salmonella enterica, TYPHI): 0.78 mg/L (≈ 1.24 µM)
MIC (Salmonella enteritidis; [14]): 0.39 mg/L (≈ 0.62 µM)
MIC [7, 15]: 6.25 mg/L (≈ 9.94 µM)
MIC (Shigella sonnei II 37148; [16]): 25 mg/L (≈ 39.8 µM)
MIC [8, 17]: 0.39 mg/L (≈ 0.62 µM)
MIC [9, 18]: 0.39 mg/L (≈ 0.62 µM)
MIC ([10]; Micrococcus flavus, ATCC10240): 6.25 mg/L (≈ 9.94 µM)
MIC [11, 19]: 0.39 mg/L (≈ 0.62 µM)
MIC [12, 20]: 3.13 mg/L (≈ 4.98 µM)
MIC (Staphylococcus Onuma; Staphylococcus): 6.25 mg/L (≈ 9.94 µM)

CSc1ccc2c(=O)c(C(=O)N[C@@H](C(=O)N[C@@H]3C(=O)N4C(C(=O)O)=C(CSc5nnc(SCC(=O)O)s5)CS[C@H]34)c3ccccc3)c[nH]c2c1 [Example 12, 7-[D-α-(7-methylthio-4-quinolon-3-ylcarboxamido)-α-phenylacetamido]-3-(5-carboxymethylthio-1,3,4-thiadiazol-2yl)thiomethyl-Δ^3-cephem-4-carboxylic acid]
MIC (Proteus vulgaris OXK US; read-out: MIC): 0.19 mg/L (≈ 0.246 µM)
MIC (Proteus vulgaris 0X 19US; [21]): 0.19 mg/L (≈ 0.246 µM)
MIC [1, 13]: 0.39 mg/L (≈ 0.506 µM)
MIC [2, 22]: 25 mg/L (≈ 32.4 µM)
MIC ([3]; read-out: MIC): 12.5 mg/L (≈ 16.2 µM)
MIC ([4]; read-out: MIC): 25 mg/L (≈ 32.4 µM)
MIC ([5]; Escherichia coli): 6.25 mg/L (≈ 8.11 µM)
MIC ([6]; ATCC10031, read-out: MIC): 0.39 mg/L (≈ 0.506 µM)
MIC (Salmonella typhi H901 W; Salmonella enterica, TYPHI): 0.19 mg/L (≈ 0.246 µM)
MIC (Salmonella enteritidis; [14]): 0.19 mg/L (≈ 0.246 µM)
MIC [7, 15]: 1.56 mg/L (≈ 2.02 µM)
MIC (Shigella sonnei II 37148; [16]): 3.13 mg/L (≈ 4.06 µM)
MIC [8, 17]: 0.39 mg/L (≈ 0.506 µM)
MIC ([9]; Bacillus subtilis, ATCC6633): 3.13 mg/L (≈ 4.06 µM)
MIC ([10]; Micrococcus flavus, ATCC10240): 3.13 mg/L (≈ 4.06 µM)
MIC [11, 19]: 0.78 mg/L (≈ 1.01 µM)
MIC ([12]; Staphylococcus): 3.13 mg/L (≈ 4.06 µM)
MIC (Staphylococcus Onuma; [23]): 6.25 mg/L (≈ 8.11 µM)

Cc1nc(SCC2=C(C(=O)O)N3C(=O)[C@@H](NC(=O)[C@H](NC(=O)c4cnccc4O)c4ccccc4)[C@H]3SC2)sc1C(=O)O [Example 14, 7-[D-α-(4-hydroxynicotinoylamido)-α-phenylacetamido]-3-(4-methyl-5-carboxythiazol-2-yl)thiomethyl-Δ^3-cephem-4-carboxylic acid]
MIC (Proteus vulgaris OXK US; read-out: MIC): 0.19 mg/L (≈ 0.296 µM)
MIC (Proteus vulgaris 0X 19US; [21]): 0.78 mg/L (≈ 1.22 µM)
MIC [1, 13]: 0.19 mg/L (≈ 0.296 µM)
MIC [2, 22]: 25 mg/L (≈ 39 µM)
MIC ([3]; read-out: MIC): 12.5 mg/L (≈ 19.5 µM)
MIC ([4]; read-out: MIC): 25 mg/L (≈ 39 µM)
MIC ([5]; Escherichia coli): 3.13 mg/L (≈ 4.88 µM)
MIC ([6]; ATCC10031, read-out: MIC): 6.25 mg/L (≈ 9.74 µM)
MIC (Salmonella typhi H901 W; Salmonella enterica, TYPHI): 1.56 mg/L (≈ 2.43 µM)
MIC (Salmonella enteritidis; [14]): 0.78 mg/L (≈ 1.22 µM)
MIC [7, 15]: 1.56 mg/L (≈ 2.43 µM)
MIC (Shigella sonnei II 37148; [16]): 3.13 mg/L (≈ 4.88 µM)
MIC [8, 17]: 0.39 mg/L (≈ 0.608 µM)
MIC [9, 18]: 0.78 mg/L (≈ 1.22 µM)
MIC [10, 24]: 6.25 mg/L (≈ 9.74 µM)
MIC ([11]; Staphylococcus aureus, 209P): 1.56 mg/L (≈ 2.43 µM)
MIC [12, 20]: 12.5 mg/L (≈ 19.5 µM)
MIC (Staphylococcus Onuma; [23]): 12.5 mg/L (≈ 19.5 µM)

Cc1cncc(C(=O)N[C@@H](C(=O)N[C@@H]2C(=O)N3C(C(=O)O)=C(CSc4nnc(SCC(=O)O)s4)CS[C@H]23)c2ccccc2)c1O [Example 27, 7-[D-α-(4-hydroxy-3-methylpyridin-5-ylcarboxamido)-α-phenylacetamido]-3-(5-carboxymethylthio-1,3,4-thiadiazol-2-yl)thiomethyl-Δ^3-cephem-4-carboxylic acid]
MIC (Proteus vulgaris OXK US; read-out: MIC): < 0.09 mg/L
MIC (Proteus vulgaris 0X 19US; Proteus vulgaris, 0X19US): 0.78 mg/L (≈ 1.13 µM)
MIC ([1]; Proteus mirabilis, IXMOM19): 0.78 mg/L (≈ 1.13 µM)
MIC [2, 22]: 12.5 mg/L (≈ 18.1 µM)
MIC ([3]; read-out: MIC): 6.25 mg/L (≈ 9.07 µM)
MIC ([4]; read-out: MIC): 25 mg/L (≈ 36.3 µM)
MIC ([5]; Escherichia coli): 3.13 mg/L (≈ 4.54 µM)
MIC ([6]; ATCC10031, read-out: MIC): 1.56 mg/L (≈ 2.26 µM)
MIC (Salmonella typhi H901 W; Salmonella enterica, TYPHI): 0.78 mg/L (≈ 1.13 µM)
MIC ([7]; Shigella flexneri): 0.78 mg/L (≈ 1.13 µM)
MIC (Shigella sonnei II 37148; Shigella sonnei): 3.13 mg/L (≈ 4.54 µM)
MIC ([8]; Bacillus, 10778): 0.78 mg/L (≈ 1.13 µM)
MIC ([9]; Bacillus subtilis, ATCC6633): 0.78 mg/L (≈ 1.13 µM)
MIC [10, 24]: 6.25 mg/L (≈ 9.07 µM)
MIC ([11]; Staphylococcus aureus, 209P): 1.56 mg/L (≈ 2.26 µM)
MIC [12, 20]: 6.25 mg/L (≈ 9.07 µM)
MIC (Staphylococcus Onuma; [23]): 6.25 mg/L (≈ 9.07 µM)

O=C(O)CSc1nnc2sc(SCC3=C(C(=O)O)N4C(=O)C(NC(=O)[C@H](NC(=O)c5cnccc5O)c5ccccc5)[C@H]4SC3)nn12 (stereo partly drawn) [Example 34, 7-[D-α-(4-hydroxynicotinoyl-amido)-α-phenylacetamido]-3-(5-carboxymethylthio-[1,2,4]-triazolo-[3,4-b]-[1,3,4]-thiadiazol-2yl)thiomethyl-Δ^3-cephem-4-carboxylic acid]
MIC (Proteus vulgaris OXK US): < 0.09 mg/L
MIC (Proteus vulgaris 0X 19US; (2) Proteus vulgaris 0X 19US): 0.78 mg/L (≈ 1.09 µM)
MIC ([1]; (3) Proteus mirabilis IXM OM-19): 0.78 mg/L (≈ 1.09 µM)
MIC ([2]; (4) Pseudomonas aeruginosa ATCC 8689): 25 mg/L (≈ 35 µM)
MIC [3]: 12.5 mg/L (≈ 17.5 µM)
MIC [4]: 25 mg/L (≈ 35 µM)
MIC ([5]; (7) Escherichia coli kauffmann 0-1): 12.5 mg/L (≈ 17.5 µM)
MIC [6]: 12.5 mg/L (≈ 17.5 µM)
MIC (Salmonella typhi H901 W; (9) Salmonella typhi H901 W): 6.25 mg/L (≈ 8.74 µM)
MIC (Salmonella enteritidis): 1.56 mg/L (≈ 2.18 µM)
MIC ([8]; (13) Bacillus megatherium 10778): 0.78 mg/L (≈ 1.09 µM)
MIC ([9]; (14) Bacillus subtilis ATCC 6633): 1.56 mg/L (≈ 2.18 µM)
MIC ([10]; (15) Micrococcus flavus ATCC 10240): 12.5 mg/L (≈ 17.5 µM)
MIC ([11]; (16) Staphylococcus aureus 209P): 3.13 mg/L (≈ 4.38 µM)
MIC ([12]; (17) Staphylococcus Shimanishi): 12.5 mg/L (≈ 17.5 µM)
MIC (Staphylococcus Onuma; (18) Staphylococcus Onuma): 25 mg/L (≈ 35 µM)
